The experiment has as its system CEM cells HIV-1 protection, formazan growth assay. The experiment is described as follows: NCI AIDS Antiviral Assay. To be noted: for IC50: measured here: growth of uninfected CEM cells. In outline: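 Human CEM cells, uninfected and HIV-1-infected, exposed to five drug concentrations; growth measured by soluble formazan assay and scored as percent protection from infection, with protecting compounds retested.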

The structures appear in SMILES notation. Activity calls are given as the source filed them.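 The calls were made as follows: active = compounds giving half or more protection of infected cells from virus-caused growth loss, again on retest; inactive = the rest.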

Regarding `Cc1cc(=O)[nH]c(CNC(=O)c2cccc(C(=O)NCc3cc(=O)[nH]c(C)n3)c2)n1`, the EC50 is > 617 µM and the IC50 was > 617 µM.
On to `COc1cc(N2C(=O)C(=O)C3(CCCCC3)C2=O)cc(OC)c1OC`, for which the EC50 was > 200 µM and the IC50 is > 200 µM.
On to `Cc1nc(N)c(N2CCN(S(N)(=O)=O)CC2)c(=O)[nH]1`, for which the EC50 was > 200 µM and the IC50 is > 200 µM.
For `Clc1ccc(Nc2nn3c(CCCCCCCCc4nnc5sc(Nc6ccc(Cl)cc6)nn45)nnc3s2)cc1`, the EC50 was > 200 µM and the IC50 was determined as 112 µM.
`CC1=CCS(=O)(=O)C1C(O)C1=C(C)CCCC1(C)C` (stereo unspecified): the EC50 is > 200 µM and the IC50 stood at 40.7 µM.
Consider `Cc1cc(-c2ccc(N=Nc3c(S(=O)(=O)O)cc4cc(S(=O)(=O)O)cc(N)c4c3O)c(C)c2)ccc1N=Nc1ccc2c(S(=O)(=O)O)ccc(N)c2c1O`, for which the outcome was inactive.
On to `OC(Cc1cccc2ccccc12)CN1CCC(c2ccccc2)CC1` (stereo unspecified), for which the EC50 is > 93.3 µM and the IC50 was determined as 28.8 µM.
Regarding `CC1(Cl)C(=O)NC(=O)N(C2CC(N=[N+]=[N-])C(CO)O2)C1N=[N+]=[N-]` (stereo unspecified), the EC50 was 3.89 µM and the 50% inhibitory concentration (IC50) worked out at 282 µM.
For `O=C(Nc1ccc(C2=NCCN2)cc1)Nc1cccc(C(=O)Nc2ccc(C3=NCCN3)cc2)c1`, in that order: 12.9 µM and 74.1 µM.
Regarding `COc1ccc(-n2c(=O)c3[nH]c(=S)[nH]c3n(-c3ccc(OC)cc3)c2=S)cc1`, the EC50 was > 200 µM and the IC50 was > 200 µM.
With `O=c1c2ccc(Cl)cc2oc2c(CSc3ccccc3)cccc12`, the EC50 was > 200 µM and the half-maximal inhibitory concentration (IC50) worked out at 9.77 µM.
On to `Cc1nc(C(=O)O)c2ccccc2n1`, for which the outcome was inactive.
Turning to `O=S(=O)(O)CCC(O)S(=O)(=O)O` (stereo unspecified), the EC50 is > 200 µM and the IC50 amounted to 120 µM.
For `CCOC(=O)C1=C(C)N2CCCOC2(C)C(C(=O)OC)C1c1cccc([N+](=O)[O-])c1` (stereo unspecified) the same measures were > 200 µM and 69.2 µM.
With `CCCCCCCCCCCCOS(=O)(=O)O`, the EC50 was > 871 µM and the 50% inhibitory concentration (IC50) was 195 µM.
On to `CC(C)(C)C(=O)O/C=C\OC1CCCC1(c1ccccc1)c1ccccc1` (stereo unspecified), for which the EC50 was > 200 µM and the IC50 was 9.55 µM.
Regarding `O=C(NC1(C(=O)O)CC1c1ccccc1)c1ccccc1` (stereo unspecified), the EC50 is > 200 µM and the concentration for half-maximal inhibition (IC50) was > 200 µM.
For the compound `Cn1c(=O)c2nc(-c3ccccc3)nnc2n(CCO)c1=O`, the EC50 is > 200 µM and the concentration for half-maximal inhibition (IC50) was found to be 41.7 µM.
Regarding `CN=C(NNc1ccc([N+](=O)[O-])cc1)P(=O)(OC(C)C)OC(C)C`, the EC50 is > 7.24 µM and the half-maximal inhibitory concentration (IC50) was > 7.24 µM.
Regarding `S=C1Cc2c(-c3ccc(Cl)cc3)cc(-c3ccccc3)nc2-c2ccccc2N1`, the EC50 was > 200 µM and the 50% inhibitory concentration (IC50) worked out at 20.9 µM.
With `CC1C(=O)CC2OC3CC(C)(Cl)C(Br)CC31C2(C)C` (stereo unspecified), the outcome was inactive.
Turning to `O=C(C(=O)c1cc(-c2ccccc2)nc2ccc3ccccc3c12)c1ccccc1`, the EC50 is > 200 µM and the IC50 worked out at 174 µM.
Regarding `S=C(NCCNC(=S)[S][Sn]([c]1ccccc1)([c]1ccccc1)[c]1ccccc1)[S][Sn]([c]1ccccc1)([c]1ccccc1)[c]1ccccc1`, the EC50 is > 0.1 µM and the half-inhibitory concentration (IC50) stood at 0.0646 µM.
For `O=C(N/N=C\c1ccc([N+](=O)[O-])o1)c1ccncc1` the same measures were > 200 µM and 22.9 µM.
Regarding `CC1=NN(C(=O)c2ccccc2O)C(=O)/C1=C/c1cccc([N+](=O)[O-])c1`, the EC50 was > 141 µM and the half-inhibitory concentration (IC50) worked out at 0.0977 µM.
With `Cn1nc(NC(=O)c2cc(NC(=O)Nc3cc(C(=O)Nc4cc(C(=O)Nc5ccc6cc(S(=O)(=O)O)cc(S(=O)(=O)O)c6c5)n(C)n4)n(C)n3)nn2C)cc1C(=O)Nc1ccc2cc(S(=O)(=O)O)cc(S(=O)(=O)O)c2c1`, the half-maximal effective concentration (EC50) was 5.13 µM and the half-maximal inhibitory concentration (IC50) was > 100 µM.
On to `CCOC(=O)C1=CC(C(=O)OCC)=C2C=CC=C3C=CC=C1N32`, for which the EC50 is > 57.5 µM and the IC50 came to 12.9 µM.
On to `[N-]=[N+]=C(C(=O)C(=[N+]=[N-])C(=O)c1ccccc1)C(=O)c1ccccc1`, for which the EC50 was > 112 µM and the IC50 is > 112 µM.
For the compound `NC1CC2NC3CCCCC3NC2CC1N` (stereo unspecified), the EC50 is > 200 µM and the IC50 is 27.5 µM.
For the compound `O=C(CCCN1CCC(Nc2ccccc2)(c2nnnn2C2CCCCC2)CC1)c1ccc(F)cc1`, the EC50 is > 200 µM and the IC50 is 75.9 µM.
As to `COc1ccc(C2OCC3C2CO[C@H]3c2ccc(OC)c(OC)c2)cc1OC` (mixture of isomers), the EC50 is > 200 µM and the half-inhibitory concentration (IC50) was determined as 93.3 µM.
As for `Cn1nc(-c2ccccc2)c(C(=O)/C=C/c2ccc(F)cc2)c(N2CCCCC2)c1=O`, the EC50 was > 18.6 µM and the IC50 is > 18.6 µM.
`NC(CCc1ncc(C(=O)O)s1)C(=O)O` (stereo unspecified): the result was inactive.
Turning to `CC(=O)OCC1OC(n2c(N)c(C#N)c(-c3ccccc3)c(C#N)c2=S)C(OC(C)=O)C(OC(C)=O)C1OC(C)=O` (stereo unspecified), the EC50 is > 200 µM and the IC50 was > 200 µM.
As for `COc1cc2cccc(NC(=O)c3cc(OC)c(OC)c(OC)c3Br)c2cc1OC`, the result was inactive.
Consider `COC1=CC(=O)C2C(C1=O)C(c1ccccc1)[C@H]2C` (stereo partly specified), for which the EC50 is > 372 µM and the IC50 came out at 22.9 µM.
On to `O=c1c2c(nc3n1CCC3)sc1c(O)c(Br)ccc12`, for which the EC50 was > 200 µM and the IC50 is 11 µM.
Consider `Nc1nc(N)c(-c2ccc(Cl)c(Cl)c2)c(C[P+](c2ccccc2)(c2ccccc2)c2ccccc2)n1`, for which the EC50 is > 200 µM and the 50% inhibitory concentration (IC50) came to 1.05 µM.
Take `COc1c2c(c3ccccc3c1O)C1C=CC2C1` (stereo unspecified): the EC50 was > 110 µM and the IC50 came to 10 µM.
`CC(=O)C(=Cc1ccc(O)cc1)C(C)=O`: the EC50 was > 1230 µM and the half-inhibitory concentration (IC50) worked out at 75.9 µM.
For the compound `NC(=S)N/N=C1\COC(C(F)(F)F)(C(F)(F)F)C1`, the EC50 was > 200 µM and the concentration for half-maximal inhibition (IC50) was determined as 166 µM.
For `CC1=NN(C(=O)CC(=O)Nc2cccc(Cl)c2)C(=O)C1N=Nc1ccc(C(=O)O)cc1` (stereo unspecified), the EC50 is > 200 µM and the IC50 is 52.5 µM.
For `Nc1ccc(Cn2ccc3c4c(N)nc(N)nc4ccc32)cc1`, the outcome was inactive.
Take `COc1cc2c(c(OC)c1OC)C(=O)C(Br)C2NC(=O)CCCCl` (stereo unspecified): the EC50 is > 200 µM and the IC50 was > 200 µM.
For `COc1ccc2[nH]c3c(C)c4ccnc(NCCCN(C)CCCNC(=O)NCCCN(C)CCCNc5nccc6c(C)c7[nH]c8ccc(OC)cc8c7c(C)c56)c4c(C)c3c2c1`, the EC50 is > 5.01 µM and the IC50 is 0.891 µM.
As for `CO/C(=N\N=C\c1cccc(C(F)(F)F)c1)c1ccncc1`, the EC50 is > 117 µM and the IC50 stood at 12.6 µM.
With `O=C(OCCN1CCCCC1)c1cc2ccccc2n1-c1ccccc1`, the EC50 was > 200 µM and the IC50 was 97.7 µM.
Turning to `Cn1cnc2c(sc3nc4ccccc4n32)c1=N`, the EC50 was > 200 µM and the IC50 is > 200 µM.
As to `COC(=O)[C@@H]1O[C@]12[C@@H](CO[Si](C)(C)C(C)(C)C)O[C@@H](n1cc(C)c(=O)[nH]c1=O)[C@@H]2O[Si](C)(C)C(C)(C)C`, the EC50 was > 200 µM and the IC50 stood at 3.72 µM.
On to `CC1C(=O)C(C)C(c2ccccc2)N(N=O)C1c1ccccc1` (stereo unspecified), for which the EC50 is > 42.7 µM and the half-maximal inhibitory concentration (IC50) is > 42.7 µM.
With `N#Cc1[nH]c(=O)n(-c2ccc(Cl)cc2)c1N`, the EC50 is > 200 µM and the concentration for half-maximal inhibition (IC50) is > 200 µM.
With `O=C(O)c1cc2cccc(S(=O)(=O)O)c2cc1O`, the EC50 is > 200 µM and the IC50 was > 200 µM.
For the compound `ClCc1nn(-c2ccccc2)c(CCl)c1CCl`, the EC50 is > 200 µM and the IC50 came out at 1.23 µM.
For the compound `COc1cc2oc(-c3ccc(O)cc3O)c(CC=C(C)C)c(=O)c2c(O)c1/C=C/C(C)C`, the EC50 was > 200 µM and the IC50 turned out to be 4.79 µM.
On to `O=C1OC2C(O)COC2(O)C1(O)Cc1cc(O)c(O)c(Br)c1Br` (stereo unspecified), for which the result was inactive.
Turning to `N#Cc1c(N)sc(N)c1C#N`, the EC50 was > 200 µM and the IC50 is 97.7 µM.
Consider `CCOP(=O)(OCC)/C(C#N)=C/c1cccn1Cc1ccccc1`, for which the EC50 was > 200 µM and the IC50 stood at 25.1 µM.
Consider `O=C(NCCO)c1c(CN(CCO)CCO)n([O-])c2ccccc2[n+]1=O`, for which the EC50 was > 490 µM and the IC50 turned out to be 457 µM.
In the case of `NC(N)=NS(=O)(=O)c1ccc(NCc2cccc3c(=O)c4ccc(Cl)cc4oc23)cc1`, the EC50 was > 25.1 µM and the half-maximal inhibitory concentration (IC50) stood at 2.19 µM.
For `COC[n+]1cc2cc(OC)c(OC)cc2c2ccc3cc(OC)c(OC)cc3c21` the same measures were > 31.6 µM and > 31.6 µM.
For the compound `O=C(NCCO)c1c(CNC2CCCCC2)n([O-])c2ccccc2[n+]1=O`, the EC50 was > 501 µM and the IC50 is > 501 µM.
`C=CO/N=[N+](\[O-])N(CC)CC`: the EC50 was > 200 µM and the IC50 is > 200 µM.
With `CCC1S(=O)(=O)OCCOS1(=O)=O`, the EC50 was > 1070 µM and the IC50 stood at 64.6 µM.
With `CCOC(OC1=C(C#N)CCCC1)C(CC)[Se]c1ccccc1[N+](=O)[O-]` (stereo unspecified), the EC50 is > 23.4 µM and the half-inhibitory concentration (IC50) is > 23.4 µM.
Regarding `COC(=O)N1CC2CC(=O)OCC2[C@@H]1CO` (stereo partly specified), the EC50 was > 724 µM and the half-inhibitory concentration (IC50) is > 724 µM.
Regarding `O=C(Nc1cc(Cl)c(Cl)cc1Cl)C(=O)C(C(=O)c1ccc2ccccc2c1)C1OC(=O)c2ccccc21` (stereo unspecified), the EC50 is > 64.6 µM and the half-maximal inhibitory concentration (IC50) worked out at 31.6 µM.
`CC1CC(c2ccc(Cl)cc2)=Nc2ccccc2S1` (stereo unspecified): the EC50 is > 6.92 µM and the half-inhibitory concentration (IC50) is > 6.92 µM.
On to `CCCCCCCCCCCCCCCCCCOC(COP(=O)(O)OCC1OC(n2cc(C)c(=O)[nH]c2=O)CC1N=[N+]=[N-])COP(=O)(O)OC1CC(n2cc(C)c(=O)[nH]c2=O)OC1CO` (stereo unspecified), for which the EC50 was 0.17 µM and the half-maximal inhibitory concentration (IC50) was 30.9 µM.
With `O=C(O)Cc1cc(=O)[nH]n(-c2ccccc2)c1=O`, the EC50 was > 200 µM and the IC50 was > 200 µM.
